The values that follow are results of earlier work, collected in article PMC7330163 (Pharmacology Research & Perspectives, 2020).

SMILES strings stand for the structures.

Data set [1] relates to CYP3A4. The conditions noted are these: man; cited from earlier work.
The subject of data set [2] is hepatic OATP transporters. The conditions noted are these: accumulates in the liver; cited from earlier work.

As for `COc1ccccc1Oc1c(NS(=O)(=O)c2ccc(C(C)(C)C)cc2)nc(-c2ncccn2)nc1OCCO` [bosentan], in data set [1], the “CYP3A4 induction in clinical use” value is reported as “moderate CYP3A4 inducer”. Besides, in data set [2], the “substrate of OATP” value is listed as “is an OATP substrate”.
